Measured values: publication PMC6177617 (British Journal of Pharmacology, 2018)
Where two headings read alike, the source gives them in different places.

Molecular target: dopamine D2 receptor (Homo sapiens, UniProt P14416)
Assay type: binding
[1] = kPCA, room temperature, PPHT tracer, N = 2, n = 2

Chain of dopamine D2 receptor (P14416 whole entry): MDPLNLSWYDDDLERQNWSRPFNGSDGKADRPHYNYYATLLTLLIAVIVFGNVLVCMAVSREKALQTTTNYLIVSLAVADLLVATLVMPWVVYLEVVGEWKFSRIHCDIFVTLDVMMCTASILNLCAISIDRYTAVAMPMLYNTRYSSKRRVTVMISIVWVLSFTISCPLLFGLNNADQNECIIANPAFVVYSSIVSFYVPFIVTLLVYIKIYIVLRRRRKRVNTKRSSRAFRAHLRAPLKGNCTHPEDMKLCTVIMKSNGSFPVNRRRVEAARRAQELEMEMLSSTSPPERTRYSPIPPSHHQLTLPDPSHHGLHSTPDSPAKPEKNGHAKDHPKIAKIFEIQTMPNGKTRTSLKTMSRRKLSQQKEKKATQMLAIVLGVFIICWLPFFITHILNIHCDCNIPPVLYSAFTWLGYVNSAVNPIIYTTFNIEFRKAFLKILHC

kon [1/(M*s)]	SMILES	kon [1/(M*s)] [1]
–	Fc1ccc(CN2CCC(Nc3ccc(C(F)(F)F)nn3)CC2)cc1F [JNJ‐37822681]	7.33E + 05 1/(M*s)
–	FC(F)(F)c1nnc(N2CCNCC2)cc1-c1ccccc1 [JNJ‐39269646]	4.53E + 06 1/(M*s)
2.26E + 06 1/(M*s)	O=C(CCCN1CCC(O)(c2ccc(Br)cc2)CC1)c1ccc(F)cc1 [Bromperidol]	–
